Values quoted from earlier work as cited in patent publication US20100292199A1 (priority 2007, published 2010).

SMILES: C[C@]12CC[C@H]3[C@@H](CCC4=CC(=O)CC[C@@]43C)[C@@H]1CC[C@@H]2O [Testosterone]
- solubility in ethyl alcohol (ethyl alcohol): soluble in ethyl alcohol
- solubility in water (water): insoluble in water
